Laboratory results as given in ChEMBL document CHEMBL1201862, “PubChem BioAssay data set” (2004).
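In this assay, cells in 96-well plates receive the compound at five concentrations for 48 hours. Endpoints are linearly interpolated between the surrounding concentrations. GI50: concentration for 50% inhibition of growth.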 Calls of active or inactive are those of the source. No stated cut-off is given here; in the data, active = GI50 up to about 1.1 µM and inactive = higher. Where a SMILES comes first, the peptide text is derived from it. [ ]: non-standard residue; d: D form. 2Nal = N[CH](Cc1ccc2ccccc2c1)C(=O)O

Experiments:
Assay in all cases: inhibition of tumour cell growth, NCI panel, 48 h
[1] = test system: DLD-1
[2] = test system: DMS-114
[3] = test system: DMS-273
[4] = test system: HOP-18
[5] = test system: LXFL 529
[6] = test system: M19-MEL
[7] = test system: RXF 631
[8] = test system: SNB-78
[9] = test system: XF498

Measured: GI50

CC(C)(C)OC(=O)N[C@H]1CC(=O)c2ccccc2N(CC(=O)O)C1=O
inactive: [1] > 100 µM | [2] > 100 µM | [3] > 100 µM | [4] > 100 µM | [5] > 100 µM | [6] > 100 µM | [7] > 100 µM

COc1ccc2nccc(NCCCN3CCN(CCCNc4ccnc5ccc(OC)cc45)CC3)c2c1
active: [1] 0.843 µM | [2] 0.128 µM | [3] 0.418 µM | [5] 0.179 µM | [6] 0.652 µM | [8] 0.873 µM | [9] 0.201 µM

CC(=O)O[C@]12CCC[C@H]1C1(O)C(O)CCC[C@H]12 (some centres not stated)
inactive: [2] > 100 µM | [3] > 100 µM | [4] > 100 µM | [5] > 100 µM | [6] > 100 µM | [8] > 100 µM | [9] > 100 µM

COC(CN1C=C(Sc2ccccc2)CC1)OC
inactive: [1] 29 µM | [2] 23.2 µM | [4] 59.3 µM | [6] 31.8 µM | [8] 34.3 µM | [9] 22.4 µM

CCc1cccc(C(C)C)c1NC(=O)C(=O)C1C(=O)NC(=O)NC1=O
inactive: [1] > 100 µM | [2] > 100 µM | [4] > 100 µM | [5] > 100 µM | [6] > 100 µM | [9] > 100 µM

CCOC(OC1=C(C#N)CCC1)C(C)[Se]c1ccccc1 (configuration not stated)
inactive: [1] 30.5 µM | [2] 4.06 µM | [3] 14.5 µM | [4] 25.4 µM | [5] 17.2 µM | [6] 14.8 µM | [7] 11.1 µM | [8] 29.8 µM

CC1CC(=O)C(C(O)CC2CC(=O)N(c3ccccc3)C(=O)C2)C(C)C1 (configuration not stated)
inactive: [1] > 100 µM | [2] > 100 µM | [3] > 100 µM | [4] > 100 µM | [5] > 100 µM | [6] > 100 µM | [8] > 100 µM

CCCCCCCCOCC(CO)OCCCCCCCC (configuration not stated)
inactive: [1] 18 µM | [2] 21.2 µM | [3] 18.7 µM | [4] 11.7 µM | [5] 18.9 µM | [6] 20 µM | [7] 17.7 µM

O=C(CSc1nc(-c2ccccc2)c(-c2ccccc2)[nH]1)NNC(=S)Nc1ccccc1
inactive: [1] 96.4 µM | [2] 57 µM | [3] 92.7 µM | [5] > 100 µM | [6] 91.6 µM | [8] > 100 µM | [9] 61.9 µM

COC(=O)C(Cc1cc(OC)c(OC)c(OC)c1)c1ccc(OC)cc1 (configuration not stated)
inactive: [1] > 100 µM | [2] 62.4 µM | [3] > 100 µM | [4] > 100 µM | [5] 54.7 µM | [6] > 100 µM | [7] > 100 µM | [8] > 100 µM

CC(NC(=O)C(N)Cc1ccccc1)C(=O)NC(Cc1ccc(O)cc1)C(=O)NC(Cc1c[nH]c2ccccc12)C(=O)NC(CCCCN)C(=O)NC(C(=O)NC(C)C(=O)NC(Cc1ccc2ccccc2c1)C(N)=O)C(C)C (configuration not stated) (H-FAYWKVA[2Nal]-NH2; configuration not given here)
inactive: [1] 31.8 µM | [2] 31.7 µM | [3] 24.6 µM | [4] 23.9 µM | [6] 27 µM | [8] 44.3 µM | [9] 21.4 µM
